13 compounds from patent EP0512042B1, “GLP-1 ANALOGS USEFUL FOR DIABETES TREATMENT” (BUCKLEY, Douglas I., priority 1990, dated 1998) can be followed below.

Where two headings read alike, the source gives them in different places. Ends that are not written are not given here.

Data set [1] deals with RIN 1046-38 cells. How it is done: An additional test for potency of the compounds of the invention measures their ability to stimulate cAMP production in RIN 1046-38 cells. This assay can be conducted as follows:
On day 1, 5 x 10^5 RIN 1046-38 cells (Drucker, D.J., et al., Proc Natl Acad Sci USA (1987) 84:3434-3438) are seeded into individual wells of 6-well dishes with 2.5 mL M199 culture medium. On day 4, cells are re-fed with fresh medium and on day 5 the assay is performed. At this time there are ~2.0-2.5 x 10^6 cells per well. Assays are only performed on cell passage <24.
At time -60 min, monolayers are washed twice with 2.5 mL PBS, and medium is changed to 1.0 mL of DMEM medium plus 4.5 g/l glucose and 0.1% BSA (assay medium). At 0 time, medium is aspirated and fresh assay medium, 1.0 mL, containing test compound is added. Test compound is added in 50 ul volume of PBS plus 0.1% BSA; controls are added in vehicle alone. Incubation is continued for 0 to 60 min.
At termination, conditioned medium and monolayer are harvested to measure both extra- and intracellular cAMP content. For extracellular measurement, medium is removed and centrifuged to remove any cellular debris. For intracellular determination, after medium removal, 1.0 mL of ice cold 95% ethanol is added to monolayer. Cells are collected by scraping, lysed by two cycles of quick freeze/thawing using liquid N2, and cell debris then removed by centrifugation. Aliquots (1/40th well content) of conditioned medium and ethanol cell extract are measured in duplicate for cAMP levels using an RIA kit by the acetylated protocol.
Insulin secretion can also be measured by the method described by Holst, J.J., et al. FEBS Letters (1987) 211:169-174 (supra). Also useful as an assay for insulinotropic effect is the measurement of stimulation of adenylate cyclase in the RIN 1046-38 cell line. Drucker, D.J. et al., Proc Natl Acad Sci USA (1987) 84:3434-3438 (supra).

The nature of data set [2]: resistance to degradation in plasma, assay by RP-HPLC. The following applies: incubation in plasma for 60 minutes.
Method: In all assays, the plasma is prepared by collecting blood into heparinized tubes, placing the tubes on ice and centrifuging at about 3,000 rpm for 10 minutes in a tabletop centrifuge. The separated plasma is stored at 4°C.
In this assay, the analog is added to plasma for various times and recovered similarly to the method described above for radiolabel sequencing analysis. Specifically, the analog at a concentration of 100 nM in RIA buffer is spiked into 1 mL plasma to a final concentration of 1 nM and after incubation in 37°C circulating water bath for various preset times, the reaction is stopped by bringing the plasma to 0.1% (w/v) in bacitracin.
The peptides are then purified by Sep-Pak extraction as described above. The eluates are concentrated to about 1 mL on a Speed-vac, diluted with 1 mL distilled water, frozen at 80°C and lyophilized overnight. The powder is resuspended in 0.5 mL Buffer C (0.1% TFA in water) per mL starting plasma and 0.25 mL are injected on a Hewlett-Packard 1090L liquid chromatograph using an Alltech* C18 column (0.45 x 25 cm; 10 µm particle size) with a Brownlee 2 cm C18 guard column. The extraction is monitored at OD214 throughout the run and the solvent flow rate was 1 mL/minute. A gradient between Buffer C and Buffer D (0.1% TFA in acetonitrile) is set up over a 40 minute run time. The gradient starts at 35% D is held for the first 2 minutes after injection and then increased to 42% D over 24 minutes. The gradient is then increased to 60% D over the next two minutes, held at this level for 2 minutes and returned to 35% D over the next 2 minutes. The %D remains at 35% for the remaining 8 minutes of the run. Fractions are collected at 0.5 minute intervals for the first 30 minutes of each run and dried in a Speed-vac.

On to “GLP-1(3-37) (EFERHAEGTFTSDVSSYLEGQAAKEFIAWLVKGRG; Glucagon-like peptide 1; UniProt P01275 94-128, looked up, fragment) [reference compound]”, for which the figures for the “ED50 nM Duplicate Assays” value in data set [1] (first of the duplicate assays) and in data set [1] (second of the duplicate assays) were 70 nM and 81 nM, respectively.

Consider GLP-1(7-37), for which the “ED50 nM Duplicate Assays” value in data set [1] (first of the duplicate assays) is 0.16 nM; in data set [1] (second of the duplicate assays) it was 0.25 nM.

`CC[C@H](C)[C@H](NC(=O)[C@H](Cc1ccccc1)NC(=O)[C@H](CCC(=O)O)NC(=O)[C@H](CCCCN)NC(=O)[C@H](C)NC(=O)[C@H](C)NC(=O)[C@H](CCC(N)=O)NC(=O)CNC(=O)[C@H](CCC(=O)O)NC(=O)[C@H](CC(C)C)NC(=O)[C@H](Cc1ccc(O)cc1)NC(=O)[C@H](CO)NC(=O)[C@H](CO)NC(=O)[C@@H](NC(=O)[C@H](CC(=O)O)NC(=O)[C@H](CO)NC(=O)[C@@H](NC(=O)[C@H](Cc1ccccc1)NC(=O)[C@@H](NC(=O)CNC(=O)[C@H](CCC(N)=O)NC(=O)[C@H](C)NC(=O)[C@@H](N)Cc1c[nH]cn1)[C@@H](C)O)[C@@H](C)O)C(C)C)C(=O)N[C@@H](C)C(=O)N[C@@H](Cc1c[nH]c2ccccc12)C(=O)N[C@@H](CC(C)C)C(=O)N[C@H](C(=O)N[C@@H](CCCCN)C(=O)NCC(=O)N[C@@H](CCCNC(=N)N)C(=O)NCC(=O)O)C(C)C` [(Q)^9 GLP-1 (7-37)]: in data set [2], the “Resistance to Degradation” value was “-”.

Consider `CC[C@H](C)[C@H](NC(=O)[C@H](Cc1ccccc1)NC(=O)[C@H](CCC(=O)O)NC(=O)[C@H](CCCCN)NC(=O)[C@H](C)NC(=O)[C@H](C)NC(=O)[C@H](CCC(N)=O)NC(=O)CNC(=O)[C@H](CCC(=O)O)NC(=O)[C@H](CC(C)C)NC(=O)[C@H](Cc1ccc(O)cc1)NC(=O)[C@H](CO)NC(=O)[C@H](CO)NC(=O)[C@@H](NC(=O)[C@H](CC(=O)O)NC(=O)[C@H](CO)NC(=O)[C@@H](NC(=O)[C@H](Cc1ccccc1)NC(=O)[C@@H](NC(=O)CNC(=O)[C@H](CCC(=O)O)NC(=O)[C@H](C)NC(=O)[C@@H](N)Cc1ccc(O)cc1)[C@@H](C)O)[C@@H](C)O)C(C)C)C(=O)N[C@@H](C)C(=O)N[C@@H](Cc1c[nH]c2ccccc12)C(=O)N[C@@H](CC(C)C)C(=O)N[C@H](C(=O)N[C@@H](CCCCN)C(=O)NCC(=O)N[C@@H](CCCNC(=N)N)C(=O)NCC(=O)O)C(C)C` [(Y)^7-GLP-1(7-37)], for which the “Resistance to Degradation” value in data set [2] is “-”. Further, in data set [1], the “ED50 nM Duplicate Assays” value came to 5.0 nM.

Consider `CC[C@H](C)[C@H](NC(=O)[C@H](Cc1ccccc1)NC(=O)[C@H](CCC(=O)O)NC(=O)[C@H](CCCCN)NC(=O)[C@H](C)NC(=O)[C@H](C)NC(=O)[C@H](CCC(N)=O)NC(=O)CNC(=O)[C@H](CCC(=O)O)NC(=O)[C@H](CC(C)C)NC(=O)[C@H](Cc1ccc(O)cc1)NC(=O)[C@H](CO)NC(=O)[C@H](CO)NC(=O)[C@@H](NC(=O)[C@H](CC(=O)O)NC(=O)[C@H](CO)NC(=O)[C@@H](NC(=O)[C@H](Cc1ccccc1)NC(=O)[C@@H](NC(=O)CNC(=O)[C@H](CCC(=O)O)NC(=O)[C@H](C)NC(=O)[C@H](Cc1c[nH]cn1)NC(C)=O)[C@@H](C)O)[C@@H](C)O)C(C)C)C(=O)N[C@@H](C)C(=O)N[C@@H](Cc1c[nH]c2ccccc12)C(=O)N[C@@H](CC(C)C)C(=O)N[C@H](C(=O)N[C@@H](CCCCN)C(=O)NCC(=O)N[C@@H](CCCNC(=N)N)C(=O)NCC(=O)O)C(C)C` [(N-acetyl-H) ^7-GLP-1(7-37), (N-acetyl-H)^7-GLP-1(7-37)], for which the “Resistance to Degradation” value in data set [2] is “+”. Also, in data set [1], the “ED50 nM Duplicate Assays” value is reported as 15.5 nM.

As for `CC[C@H](C)[C@H](NC(=O)[C@H](Cc1ccccc1)NC(=O)[C@H](CCC(=O)O)NC(=O)[C@H](CCCCN)NC(=O)[C@H](C)NC(=O)[C@H](C)NC(=O)[C@H](CCC(N)=O)NC(=O)CNC(=O)[C@H](CCC(=O)O)NC(=O)[C@H](CC(C)C)NC(=O)[C@H](Cc1ccc(O)cc1)NC(=O)[C@H](CO)NC(=O)[C@H](CO)NC(=O)[C@@H](NC(=O)[C@H](CC(=O)O)NC(=O)[C@H](CO)NC(=O)[C@@H](NC(=O)[C@H](Cc1ccccc1)NC(=O)[C@@H](NC(=O)CNC(=O)[C@H](CCC(=O)O)NC(=O)[C@H](C)NC(=O)[C@H](CCCCN)NC(C)=O)[C@@H](C)O)[C@@H](C)O)C(C)C)C(=O)N[C@@H](C)C(=O)N[C@@H](Cc1c[nH]c2ccccc12)C(=O)N[C@@H](CC(C)C)C(=O)N[C@H](C(=O)N[C@@H](CCCCN)C(=O)NCC(=O)N[C@@H](CCCNC(=N)N)C(=O)NCC(=O)O)C(C)C` [(N-acetyl-K)^7 GLP-1 (7-37)], the “Resistance to Degradation” value in data set [2] was “+”.

In the case of `CC[C@H](C)[C@H](NC(=O)[C@H](Cc1ccccc1)NC(=O)[C@H](CCC(=O)O)NC(=O)[C@H](CCCCN)NC(=O)[C@H](C)NC(=O)[C@H](C)NC(=O)[C@H](CCC(N)=O)NC(=O)CNC(=O)[C@H](CCC(=O)O)NC(=O)[C@H](CC(C)C)NC(=O)[C@H](Cc1ccc(O)cc1)NC(=O)[C@H](CO)NC(=O)[C@H](CO)NC(=O)[C@@H](NC(=O)[C@H](CC(=O)O)NC(=O)[C@H](CO)NC(=O)[C@@H](NC(=O)[C@H](Cc1ccccc1)NC(=O)[C@@H](NC(=O)CNC(=O)[C@H](CCC(=O)O)NC(=O)[C@H](C)NC(=O)[C@@H](N)CCCCN)[C@@H](C)O)[C@@H](C)O)C(C)C)C(=O)N[C@@H](C)C(=O)N[C@@H](Cc1c[nH]c2ccccc12)C(=O)N[C@@H](CC(C)C)C(=O)N[C@H](C(=O)N[C@@H](CCCCN)C(=O)NCC(=O)N[C@@H](CCCNC(=N)N)C(=O)NCC(=O)O)C(C)C` [(K)^7-GLP-1(7-37)], in data set [2], the “Resistance to Degradation” value is given as “-”. In addition, in data set [1], the “ED50 nM Duplicate Assays” value came out at 350.0 nM.

For `CC[C@H](C)[C@H](NC(=O)[C@H](Cc1ccccc1)NC(=O)[C@H](CCC(=O)O)NC(=O)[C@H](CCCCN)NC(=O)[C@H](C)NC(=O)[C@H](C)NC(=O)[C@H](CCC(N)=O)NC(=O)CNC(=O)[C@H](CCC(=O)O)NC(=O)[C@H](CC(C)C)NC(=O)[C@H](Cc1ccc(O)cc1)NC(=O)[C@H](CO)NC(=O)[C@H](CO)NC(=O)[C@@H](NC(=O)[C@H](CC(=O)O)NC(=O)[C@H](CO)NC(=O)[C@@H](NC(=O)[C@H](Cc1ccccc1)NC(=O)[C@@H](NC(=O)CNC(=O)[C@H](CCC(=O)O)NC(=O)[C@H](C)NC(=O)[C@H](Cc1c[nH]cn1)NC(C)C)[C@@H](C)O)[C@@H](C)O)C(C)C)C(=O)N[C@@H](C)C(=O)N[C@@H](Cc1c[nH]c2ccccc12)C(=O)N[C@@H](CC(C)C)C(=O)N[C@H](C(=O)N[C@@H](CCCCN)C(=O)NCC(=O)N[C@@H](CCCNC(=N)N)C(=O)NCC(=O)O)C(C)C` [(N-isopropyl-H) ^7-GLP-1(7-37), (N-isopropyl-H)^7-GLP-1(7-37)], the “Resistance to Degradation” value in data set [2] is “+”. Besides, in data set [1], the “ED50 nM Duplicate Assays” value is 15.5 nM.

“GLP-1(4-37) (FERHAEGTFTSDVSSYLEGQAAKEFIAWLVKGRG; Glucagon-like peptide 1; UniProt P01275 95-128, looked up, fragment) [reference compound]”: the entries for the “ED50 nM Duplicate Assays” value in data set [1] (first of the duplicate assays) and in data set [1] (second of the duplicate assays) were 130 nM and 200 nM, respectively.

On to “HSQGTFTSDYSKYLDGQAAKEFIAWLVKGRG [(S)^8(Q)^9(Y)^16(K)^18(D)^21-GLP-1(7-37)]”, for which the “Resistance to Degradation” value in data set [2] is listed as “-”. In data set [1], the “ED50 nM Duplicate Assays” value is 0.31 nM.

On to GLP-1(1-37) [reference compound], for which the results for the “ED50 nM Duplicate Assays” value in data set [1] (first of the duplicate assays) and in data set [1] (second of the duplicate assays) were >1000 nM and 2900 nM, respectively.

“GLP-1(5-37) (ERHAEGTFTSDVSSYLEGQAAKEFIAWLVKGRG; Glucagon-like peptide 1; UniProt P01275 96-128, looked up, fragment) [reference compound]”: the “ED50 nM Duplicate Assays” value in data set [1] (first of the duplicate assays) is 150 nM; in data set [1] (second of the duplicate assays), 750 to 970 nM.

For the compound “gastric inhibitory peptide [GIP, reference compound]”, the “ED50 nM Duplicate Assays” value was found to be 10.0 nM in data set [1] (first of the duplicate assays) and 37.5 nM in data set [1] (second of the duplicate assays).
